Measured values published in publication PMC5085689, “Cinnamide Derivatives as Mammalian Arginase Inhibitors: Synthesis, Biological Evaluation and Molecular Docking” (International Journal of Molecular Sciences, 2016).
Values joined by “and” are separate entries in the source; they are usually repeats but may differ in a detail not shown here. Equal values may be shown once. Read-outs that look alike come from different tables or passages of the source.

Tests used:
[1] = molecular target: T1, purified liver bovine arginase (b-ARG I) (Bos taurus, UniProt Q2KJ64); assay: In vitro colorimetric microassay of arginase inhibition on purified bovine liver arginase; assay type: biochemical; details: for inhibition at 100 µM: read-out: b-ARG I Inhibition (%) (100 μM);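 as to all read-outs here: urea formed from L-arginine detected colorimetrically with alpha-isonitrosopropiophenone at 550 nm after 60 min at 37 °C, inhibition relative to solvent controls taken as 100% arginase activity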
T1 construct: commercially-available purified bovine arginase (b-ARG I) instead of animal tissue; purchased MP Biomedicals; host or cells: bovine liver (enzyme purified from tissue)
T1 sequence (Q2KJ64 1-322): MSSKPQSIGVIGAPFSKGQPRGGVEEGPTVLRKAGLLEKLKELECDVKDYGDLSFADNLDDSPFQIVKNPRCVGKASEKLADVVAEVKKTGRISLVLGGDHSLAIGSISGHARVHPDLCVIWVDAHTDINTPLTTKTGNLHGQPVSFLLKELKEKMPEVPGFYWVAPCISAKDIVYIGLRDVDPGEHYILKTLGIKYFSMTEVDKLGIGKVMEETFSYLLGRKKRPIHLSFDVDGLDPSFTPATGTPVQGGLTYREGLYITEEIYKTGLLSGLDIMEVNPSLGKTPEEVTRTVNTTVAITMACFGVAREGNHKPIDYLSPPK

b-ARG I = molecular target: T2, b-ARG I (Bos taurus, UniProt Q2KJ64); assay: Enzyme kinetic study and determination of Ki values on b-ARG I; assay type: biochemical, bovine; details: for Type of Inhibition: Lineweaver–Burk, Dixon and Cornish–Bowden plots
T2 construct: commercially-available purified bovine arginase (b-ARG I) instead of animal tissue; purchased MP Biomedicals; host or cells: bovine liver (enzyme purified from tissue)
T2 sequence (Q2KJ64 1-322): T1 sequence (Q2KJ64 1-322)

[2] = molecular target: T3, recombinant human arginase I (h-ARG I) (Homo sapiens, UniProt P05089); assay: In vitro colorimetric microassay of arginase inhibition on recombinant human arginase I; assay type: biochemical
T3 construct: purchased Interchim BXC572/n P0408M10
T3 sequence (P05089 1-322): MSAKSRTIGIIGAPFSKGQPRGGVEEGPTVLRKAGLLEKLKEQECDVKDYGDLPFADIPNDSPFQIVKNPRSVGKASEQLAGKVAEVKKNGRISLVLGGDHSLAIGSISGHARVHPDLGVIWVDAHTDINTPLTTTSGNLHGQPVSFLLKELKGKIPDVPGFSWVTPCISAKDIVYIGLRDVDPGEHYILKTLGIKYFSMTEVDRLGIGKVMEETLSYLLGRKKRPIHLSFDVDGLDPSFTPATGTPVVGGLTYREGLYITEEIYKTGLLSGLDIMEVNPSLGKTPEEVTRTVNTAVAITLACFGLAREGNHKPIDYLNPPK

[3] = 100 μM final concentration, three separate in-duplicate experiments
[4] = purified bovine liver arginase, three separate in-triplicate experiments, read-out: IC50 (b-ARG I)
[5] = b-ARG I, Cheng–Prusoff equation, [S] = 14.3 mM L-arginine, Km = 55.5 ± 10.5 µM, read-out: Ki

| Compound | inhibition at 100 µM [1, 3] [%] | IC50 [1, 4] [µM] | other results |
| --- | --- | --- | --- |
| O=C(/C=C/c1ccc(O)c(O)c1)O[C@@H]1C[C@](O)(C(=O)O)C[C@@H](O)[C@H]1O [CGA, chlorogenic acid, reference compound] |  |  | IC50 ([1]; IC50 (b-ARG I), purified bovine liver arginase, three separate in-triplicate experiments): < 50 µM and 10.6 µM; inhibition at 100 µM [1]: 71 ± 1%; Ki (b-ARG I): 8.4 ± 1.2 µM; Type of Inhibition (b-ARG I; b-ARG I): competitive |
| O=C(O)/C=C/c1ccc(O)c(O)c1 [Caffeic acid, reference compound] |  |  | IC50 [1]: 86.7 ± 8 µM |
| O=C(/C=C/c1ccc(O)c(O)c1)NCCc1ccccc1 [Compound 1, (E)-N-(2-Phenylethyl)-3,4-dihydroxycinnamide] | 64 ± 2 | 6.9 ± 1.3 | IC50 [2]: 60.3 ± 7.8 µM; Ki (b-ARG I; [5]): 5.5 ± 1 µM; Type of Inhibition (b-ARG I; b-ARG I, listed as CAPA): competitive inhibitor; Type of Inhibition (b-ARG I; b-ARG I, listed as CAPA (1)): competitive |
| COc1cc(/C=C/C(=O)NCCc2ccccc2)ccc1O [Compound 2, (E)-N-(2-Phenylethyl)-3-methoxy-4-hydroxycinnamide] | 37 ± 4 |  |  |
| O=C(/C=C/c1ccc(O)cc1)NCCc1ccccc1 [Compound 3, (E)-N-(2-Phenylethyl)-4-hydroxycinnamide] | 31 ± 4 |  |  |
| COc1cc(/C=C/C(=O)NCCc2ccccc2)cc(OC)c1OC [Compound 4, (E)-N-(2-Phenylethyl)-3,4,5-trimethoxycinnamide] | 35 ± 2 |  |  |
| O=C(/C=C/c1ccccc1)NCCc1ccccc1 [Compound 5, (E)-N-(2-Phenylethyl)cinnamide] | 34 ± 2 |  |  |
| O=C(/C=C/c1ccc(O)c(O)c1)NCCc1ccc(O)cc1 [Compound 6, (E)-N-(2-(4-Hydroxyphenyl)ethyl)-3,4-dihydroxycinnamide] | 58 ± 2 | 22.1 ± 1.6 |  |
| COc1cc(/C=C/C(=O)NCCc2ccc(O)cc2)ccc1O [Compound 7, (E)-N-(4-Hydroxyphenethyl)-3-methoxy-4-hydroxycinnamide] | 24 ± 2 |  |  |
| O=C(/C=C/c1ccc(O)cc1)NCCc1ccc(O)cc1 [Compound 8, (E)-N-(4-Hydroxyphenethyl)-4-hydroxycinnamide] | 40 ± 2 |  |  |
| COc1cc(/C=C/C(=O)NCCc2ccc(O)cc2)cc(OC)c1OC [Compound 9, (E)-N-(4-Hydroxyphenethyl)-3,4,5-trimethoxycinnamide] | 30 ± 2 |  |  |
| O=C(/C=C/c1ccccc1)NCCc1ccc(O)cc1 [Compound 10, (E)-N-(4-Hydroxyphenethyl)-cinnamide] | 34 ± 3 |  |  |
| O=C(/C=C/c1ccc(O)c(O)c1)NCCc1ccc(O)c(O)c1 [Compound 11, (E)-N-(3,4-Dihydroxyphenethyl)-3,4-dihydroxycinnamide] | 62 ± 3 | 115 ± 1.3 |  |
| COc1cc(/C=C/C(=O)NCCc2ccc(O)c(O)c2)ccc1O [Compound 12, (E)-N-(3,4-Dihydroxyphenethyl)-3-methoxy-4-hydroxycinnamide] | 61 ± 3 | 198.7 ± 1.4 |  |
| O=C(/C=C/c1ccc(O)cc1)NCCc1ccc(O)c(O)c1 [Compound 13, (E)-N-(3,4-Dihydroxyphenethyl)-4-hydroxycinnamide] | 54 ± 1 | 170.4 ± 1.7 |  |

Continued, in another order:

| inhibition at 100 µM [1, 3] [%] | IC50 [1, 4] [µM] | Compound | other results |
| --- | --- | --- | --- |
| 53 ± 1 | 193.6 ± 1.4 | COc1cc(/C=C/C(=O)NCCc2ccc(O)c(O)c2)cc(OC)c1OC [Compound 14, (E)-N-(3,4-Dihydroxyphenethyl)-3,4,5-trimethoxycinnamide] |  |
| 68 ± 3 | 39.3 ± 1.4 | O=C(/C=C/c1ccccc1)NCCc1ccc(O)c(O)c1 [Compound 15, (E)-N-(3,4-Dihydroxyphenethyl)cinnamide] |  |
| 59 ± 1 | 35.6 ± 1.3 | O=C(/C=C/c1ccc(O)c(O)c1)Nc1ccc(O)cc1 [Compound 16, (E)-N-(4-Hydroxyphenyl)-3,4-dihydroxycinnamide] |  |
| 52 ± 2 | 175.3 ± 1.5 | O=C(NCCc1ccc(O)cc1)c1ccc(O)c(O)c1 [Compound 17, N-(4-Hydoxyphenethyl)-3,4-dihydroxybenzamide] |  |
| 62 ± 1 | 41.9 ± 1.3 | COC(=O)C(Cc1ccc(O)c(O)c1)NC(=O)C=Cc1ccc(O)c(O)c1 (stereo not shown) [Compound 18, 3-(3,4-Dihydroxyphenyl)-2-[3-(3,4-dihydroxyphenyl)-acryloylamino]-propionic acid methyl ester] |  |
| 67 ± 1 | 37 ± 1.3 | COC(=O)[C@H](CS)NC(=O)/C=C/c1ccc(O)c(O)c1 [Compound 19, (E)-N-(3,4-Dihydroxycinnamoyl)-L-cysteine methyl ester] |  |
| 99 ± 1 | 1.7 ± 0.2 | N=C(NO)NCC[C@H](N)C(=O)O [nor-NOHA, N^ω-hydroxy-nor-L-arginine, reference compound] | Ki (b-ARG I; [5]): 1.3 ± 0.1 µM; Type of Inhibition (b-ARG I; b-ARG I): competitive |
